Earlier results as cited in patent US10828380B2, “Conjugate of polysarcosine and NIR contrast agent for photoacoustic imaging” (CANON KABUSHIKI KAISHA, priority 2015, dated 2020).

For `CC1(C)C(/C=C/C=C/C=C/C=C2/N(CCCCS(=O)(=O)[O-])c3ccc4ccccc4c3C2(C)C)=[N+](CCCCS(=O)(=O)[O-])c2ccc3ccccc3c21.[Na+]` [ICG, indocyanine green], the half-life in blood is listed as “about several minutes”.
